Laboratory results taken from patent US20240294508A1, “RIP1 MODULATORS INCLUDING AZETIDINE CYCLIC UREAS, PREPARATIONS, AND USES THEREOF” (SIRONAX LTD., priority 2021, published 2024).

System: HT-29 cells
Test: HT29 cells 0FBS assay in vitro: TNF-α/SMAC mimetic/zVAD-FMK induced necroptosis, CellTiter-Glo cell viability (RIP1 inhibitory activity)
Assay type: cell-based
Settings: Homo sapiens, FBS free medium, TNF-α (10 ng/ml) + SMAC mimetic (6 uM) + zVAD-FMK (10 μM), 20 hours, geometric mean EC50
How it was run: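 Luminescent ATP read-out (CellTiter-Glo) gave viability of HT-29 cells after 20 h at 37° C in serum-free medium containing compound and a necroptosis cocktail of 10 ng/ml TNF-α, 6 uM SMAC mimetic and 10 μM zVAD-FMK. EC50s are geometric means of 10-point curves run in duplicate.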

SMILES | EC50 [µM]
Cn1ncc(F)c1-c1cc(OC2CN(C(=O)N3N=CC[C@H]3c3cncc(C#N)c3)C2)c(F)cn1 [Compound 46, (S)-5-(1-(3-((5-fluoro-2-(4-fluoro-1-methyl-1H-pyrazol-5-yl)pyridin-4-yl)oxy)azetidine-1-carbonyl)-4,5-dihydro-1H-pyrazol-5-yl)nicotinonitrile] | 0.0001 to 0.1
Cc1c(C#N)nn(C)c1-c1ccc(F)c(OC2CN(C(=O)N3N=CC[C@H]3c3cc(F)cc(C#N)c3)C2)n1 [Compound 56, (S)-5-(6-((1-(5-(3-cyano-5-fluorophenyl)-4,5-dihydro-1H-pyrazole-1-carbonyl)azetidin-3-yl)oxy)-5-fluoropyridin-2-yl)-1,4-dimethyl-1H-pyrazole-3-carbonitrile] | 0.0001 to 0.1
CNC(=O)c1c(C)nn(-c2cc(OC3CN(C(=O)N4N=CC[C@H]4c4cccc(F)c4)C3)c(F)cn2)c1C [Compound 79, (S)-1-(5-fluoro-4-((1-(5-(3-fluorophenyl)-4,5-dihydro-1H-pyrazole-1-carbonyl)azetidin-3-yl)oxy)pyridin-2-yl)-N,3,5-trimethyl-1H-pyrazole-4-carboxamide] | 0.0001 to 0.1
Cc1cnn(C)c1-c1ncc(F)c(OC2CN(C(=O)N3N=CC[C@H]3c3cc(F)cc(C#N)c3)C2)n1 [Compound 25, (S)-3-(1-(3-((2-(1,4-dimethyl-1H-pyrazol-5-yl)-5-fluoropyrimidin-4-yl)oxy)azetidine-1-carbonyl)-4,5-dihydro-1H-pyrazol-5-yl)-5-fluorobenzonitrile] | 0.0001 to 0.1
Cc1cnn(C)c1-c1cc(OC2CN(C(=O)N3N=CCC3c3nccs3)C2)c(F)cn1 (stereo not drawn) [Compound 92, (3-((2-(1,4-dimethyl-1H-pyrazol-5-yl)-5-fluoropyridin-4-yl)oxy)azetidin-1-yl)(5-(thiazol-2-yl)-4,5-dihydro-1H-pyrazol-1-yl)methanone] | 0.0001 to 0.1
Cn1ncc(C#N)c1-c1cc(OC2CN(C(=O)N3N=CC[C@H]3c3cncc(F)c3)C2)c(F)cn1 [Compound 26, (S)-5-(5-fluoro-4-((1-(5-(5-fluoropyridin-3-yl)-4,5-dihydro-1H-pyrazole-1-carbonyl)azetidin-3-yl)oxy)pyridin-2-yl)-1-methyl-1H-pyrazole-4-carbonitrile] | 0.0001 to 0.1
Cc1cnc(C2CC=NN2C(=O)N2CC(Oc3cc(-c4c(C)cnn4C)ncc3F)C2)s1 (stereo not drawn) [Compound 94, (3-((2-(1,4-dimethyl-1H-pyrazol-5-yl)-5-fluoropyridin-4-yl)oxy)azetidin-1-yl)(5-(5-methylthiazol-2-yl)-4,5-dihydro-1H-pyrazol-1-yl)methanone] | 0.0001 to 0.1
Cc1nn(CC2CC2)c(C)c1-c1cc(OC2CN(C(=O)N3N=CC[C@H]3c3cc(F)cc(C#N)c3)C2)c(F)cn1 [Compound 57, (S)-3-(1-(3-((2-(1-(cyclopropylmethyl)-3,5-dimethyl-1H-pyrazol-4-yl)-5-fluoropyridin-4-yl)oxy)azetidine-1-carbonyl)-4,5-dihydro-1H-pyrazol-5-yl)-5-fluorobenzonitrile] | 0.0001 to 0.1
Cn1ncc(F)c1-c1cc(OC2CN(C(=O)N3N=CC[C@H]3c3cc(F)cc(C#N)c3)C2)c(F)cn1 [Compound 5, (S)-3-fluoro-5-(1-(3-((5-fluoro-2-(4-fluoro-1-methyl-1H-pyrazol-5-yl)pyridin-4-yl)oxy)azetidine-1-carbonyl)-4,5-dihydro-1H-pyrazol-5-yl)benzonitrile] | 0.0001 to 0.1
Cc1c(N)nn(C)c1-c1ccc(F)c(OC2CN(C(=O)N3N=CC[C@H]3c3cncc(F)c3)C2)n1 [Compound 67, (S)-(3-((6-(3-amino-1,4-dimethyl-1H-pyrazol-5-yl)-3-fluoropyridin-2-yl)oxy)azetidin-1-yl)(5-(5-fluoropyridin-3-yl)-4,5-dihydro-1H-pyrazol-1-yl)methanone] | 0.0001 to 0.1
Cc1cc(F)cc([C@H]2CC=NN2C(=O)N2CC(Oc3cc(-n4nc(C)c(C(=O)O)c4C)ncc3F)C2)c1 [Compound 143, (R) 1-(5-fluoro-4-((1-(5-(3-fluoro-5-methylphenyl)-4,5-dihydro-1H-pyrazole-1-carbonyl)azetidin-3-yl)oxy)pyridin-2-yl)-3,5-dimethyl-1H-pyrazole-4-carboxylic acid] | 0.1 to 1
Cc1cc(F)cc([C@@H]2CC=NN2C(=O)N2CC(Oc3cc(-n4nc(C)c(C(=O)O)c4C)ncc3F)C2)c1 [Compound 142, (S)-1-(5-fluoro-4-((1-(5-(3-fluoro-5-methylphenyl)-4,5-dihydro-1H-pyrazole-1-carbonyl)azetidin-3-yl)oxy)pyridin-2-yl)-3,5-dimethyl-1H-pyrazole-4-carboxylic acid] | 0.0001 to 0.1
Cc1nc(C2CC=NN2C(=O)N2CC(Oc3cc(-c4c(C)cnn4C)ncc3Cl)C2)cs1 (stereo not drawn) [Compound 127, (3-((5-chloro-2-(1,4-dimethyl-1H-pyrazol-5-yl)pyridin-4-yl)oxy)azetidin-1-yl)(5-(2-methylthiazol-4-yl)-4,5-dihydro-1H-pyrazol-1-yl)methanone] | 1 to 10
Cc1nc(C2CC=NN2C(=O)N2CC(Oc3cc(-c4c(C)cnn4C)ncc3F)C2)cs1 (stereo not drawn) [Compound 96, (3-((2-(1,4-dimethyl-1H-pyrazol-5-yl)-5-fluoropyridin-4-yl)oxy)azetidin-1-yl)(5-(2-methylthiazol-4-yl)-4,5-dihydro-1H-pyrazol-1-yl)methanone] | 0.0001 to 0.1
Cc1nn(-c2cc(OC3CN(C(=O)N4N=CC[C@@H]4c4cc(F)cc(Cl)c4)C3)c(F)cn2)c(C)c1C(=O)O [Compound 141, (R)-1-(4-((1-(5-(3-chloro-5-fluorophenyl)-4,5-dihydro-1H-pyrazole-1-carbonyl)azetidin-3-yl)oxy)-5-fluoropyridin-2-yl)-3,5-dimethyl-1H-pyrazole-4-carboxylic acid] | 0.1 to 1
Cc1cnn(C)c1-c1cc(OC2CN(C(=O)N3N=CCC3c3ccn(C)c3)C2)c(F)cn1 (stereo not drawn) [Compound 145, (3-((2-(1,4-dimethyl-1H-pyrazol-5-yl)-5-fluoropyridin-4-yl)oxy)azetidin-1-yl)(5-(1-methyl-1H-pyrrol-3-yl)-4,5-dihydro-1H-pyrazol-1-yl)methanone] | 0.0001 to 0.1
CCn1nccc1-c1cc(OC2CN(C(=O)N3N=CC[C@H]3c3cc(F)cc(C#N)c3)C2)c(F)cn1 [Compound 12, (S)-3-(1-(3-((2-(1-ethyl-1H-pyrazol-5-yl)-5-fluoropyridin-4-yl)oxy)azetidine-1-carbonyl)-4,5-dihydro-1H-pyrazol-5-yl)-5-fluorobenzonitrile] | 0.0001 to 0.1
Cc1nc(C(N)=O)c(C)n1-c1cc(OC2CN(C(=O)N3N=CC[C@H]3c3cncc(F)c3)C2)c(F)cn1 [Compound 69, (S)-1-(5-fluoro-4-((1-(5-(5-fluoropyridin-3-yl)-4,5-dihydro-1H-pyrazole-1-carbonyl)azetidin-3-yl)oxy)pyridin-2-yl)-2,5-dimethyl-1H-imidazole-4-carboxamide] | 0.1 to 1
Cc1cnn(C)c1-c1cc(OC2CN(C(=O)N3N=CCC3c3cc(F)cc(F)c3F)C2)c(F)cn1 (stereo not drawn) [Compound 116, (3-((2-(1,4-dimethyl-1H-pyrazol-5-yl)-5-fluoropyridin-4-yl)oxy)azetidin-1-yl)(5-(2,3,5-trifluorophenyl)-4,5-dihydro-1H-pyrazol-1-yl)methanone] | 0.0001 to 0.1
Cn1ncc(Cl)c1-c1cc(OC2CN(C(=O)N3N=CC[C@H]3c3cncc(F)c3)C2)c(F)cn1 [Compound 43, (S)-(3-((2-(4-chloro-1-methyl-1H-pyrazol-5-yl)-5-fluoropyridin-4-yl)oxy)azetidin-1-yl)(5-(5-fluoropyridin-3-yl)-4,5-dihydro-1H-pyrazol-1-yl) methanone] | 0.0001 to 0.1
Cc1nn(-c2cc(OC3CN(C(=O)N4N=CC[C@H]4c4cccc(F)c4)C3)c(F)cn2)c(C)c1C(=O)NCCO [Compound 75, (S)-1-(5-fluoro-4-((1-(5-(3-fluorophenyl)-4,5-dihydro-1H-pyrazole-1-carbonyl)azetidin-3-yl)oxy)pyridin-2-yl)-N-(2-hydroxyethyl)-3,5-dimethyl-1H-pyrazole-4-carboxamide] | 0.0001 to 0.1
